Reference: patent US7524844B2, “Dipeptidyl peptidase IV inhibitors, process for their preparation and compositions containing them” (Glenmark Pharmaceuticals S.A., priority 2004, dated 2009)
Counter-ions that a name gives are not always drawn.

Target: T1, human recombinant Dipeptidyl peptidase IV enzyme (DPP-IV) (Homo sapiens, UniProt P27487)
T1 construct: purchased R&D Systems Inc. of Minneapolis, Minn
Test: in-vitro DPP-IV assay (cleavage of AMC from Gly-Pro-AMC)
Format: biochemical
Settings: human recombinant DPP-IV, Gly-Pro-AMC substrate, 30° C., 30 minutes; read-out: DPP-IV inhibition using human recombinant DPP-IV enzyme, IC50
Description: DPP-IV activity was determined by the cleavage rate of 7-amino-4-methyl coumarin (AMC) from the synthetic substrate Glycyl-Prolyl-AMC. In brief, the assay was conducted by adding 10 ng of human recombinant Dipeptidyl peptidase IV enzyme (DPP-IV, available commercially from R&D Systems Inc. of Minneapolis, Minn.) in 50 μl of the assay buffer (25 mM Tris, pH 7.4, 140 mM NaCl, 10 mM KCl, 1% BSA) to 96 well black flat bottom microtiter plates. The reaction was initiated by adding 50 μl of 100 μM substrate Gly-Pro-AMC. The incubation was carried out in the kinetic mode at 30° C. for 30 minutes. Fluorescence was measured using Fluorostar with an excitation filter of 380 nm and emission filter of 460 nm. Test compounds and solvent controls were added as 1 μl additions. A standard curve of free amino methyl coumarin (AMC) was generated using 0-100 μM AMC in the assay buffer. The curve generated, which was linear was used for the interpolation of catalytic activity.
Test compounds dissolved in DMSO at 5-6 concentrations were tested in duplicate along with the solvent control and blank samples. Percent inhibition was calculated at each concentration with respect to the solvent control sample (no test compound added). […]

T1 sequence (P27487 whole entry): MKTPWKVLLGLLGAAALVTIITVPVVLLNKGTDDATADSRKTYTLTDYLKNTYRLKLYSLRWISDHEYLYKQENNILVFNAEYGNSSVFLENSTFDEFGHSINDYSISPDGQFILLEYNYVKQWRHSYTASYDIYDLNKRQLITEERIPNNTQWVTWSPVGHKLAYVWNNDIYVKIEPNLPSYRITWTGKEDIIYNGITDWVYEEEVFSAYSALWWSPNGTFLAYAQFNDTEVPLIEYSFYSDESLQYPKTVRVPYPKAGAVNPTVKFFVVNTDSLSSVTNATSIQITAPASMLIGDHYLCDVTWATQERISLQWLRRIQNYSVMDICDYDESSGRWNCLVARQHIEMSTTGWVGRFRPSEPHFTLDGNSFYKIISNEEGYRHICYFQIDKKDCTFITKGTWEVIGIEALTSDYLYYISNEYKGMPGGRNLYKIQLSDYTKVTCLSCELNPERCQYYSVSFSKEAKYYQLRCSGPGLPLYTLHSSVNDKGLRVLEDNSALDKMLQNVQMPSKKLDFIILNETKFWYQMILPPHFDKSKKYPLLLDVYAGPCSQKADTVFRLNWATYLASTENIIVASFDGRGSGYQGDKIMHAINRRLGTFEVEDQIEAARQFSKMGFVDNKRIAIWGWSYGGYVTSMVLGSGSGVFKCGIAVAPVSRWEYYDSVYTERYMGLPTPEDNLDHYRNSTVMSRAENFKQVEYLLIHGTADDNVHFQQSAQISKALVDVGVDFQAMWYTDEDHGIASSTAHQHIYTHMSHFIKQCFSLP

Row | SMILES | IC50 [nM]
1 | N#C[C@@H]1CCCN1C(=O)CNC1CCC(C(=O)Nc2cc(F)ccc2F)C1 (mixture of isomers) [Example 73, 1-((1SR,3RS)-3-{2-[(2S)-2-Cyanopyrrolidin-1-yl)-2-oxoethylamino}cyclopentyl-carboxamido)-2,5-difluorobenzene] | 49.2
2 | N#C[C@@H]1CCCN1C(=O)CN[C@@H]1CC[C@H](Cn2cncn2)C1 [Example-39, (2S)-1-{2-[(3S,1R)-3-(1H-1,2,4-Triazol-1-ylmethyl)cyclopentylamino]acetyl}-pyrrolidine-2-carbonitrile maleate] | 5.05
3 | N#C[C@@H]1CCCN1C(=O)CNC1CCC(Cn2cncn2)C1 (mixture of isomers) [Example-36, (2S)-1-{2-[(3SR,1RS)-3-(1H-1,2,4-Triazol-1-ylmethyl)cyclopentylamino]acetyl}-pyrrolidine-2-carbonitrile] | 6
4 | N#C[C@@H]1CCCN1C(=O)CNC1CCC(CN2CCN(Cc3ccccc3)CC2)C1 (mixture of isomers) [Example-22, (2S)-1-{2-1[(3SR,1RS)-3-(4-Benzylpiperazinomethyl)cyclopentylamino]acetyl}-pyrrolidin-2-carbonitrile] | 25.4
5 | CCCCc1nc(Cl)c(CO)n1CC1CCC(NCC(=O)N2CCC[C@H]2C#N)C1 (mixture of isomers) [Example-31, (2S)-1-{2-[(3SR,1RS)-3-(2-Butyl-4-chloro-5-hydroxymethyl-1H-1-imidazolylmethyl)-cyclopentylamino]acetyl}pyrrolidine-2-carbonitrile] | 10.1
6 | N#C[C@@H]1CCCN1C(=O)CNC1CCC(C(N)=O)C1 (mixture of isomers) [Example-1, (1SR,3RS)-3-{2-[(2S)-2-Cyanopyrrolidin-1-yl]-2-oxoethylamino}cyclopentane-1-carboxamide] | 163
7 | N#C[C@@H]1CCCN1C(=O)CN[C@H]1CC[C@@H](CN2CCN(c3ccccc3)CC2)C1 [Example-23, (2S)-1-{2-[(1S,3R)-3-(4-Phenylpiperazinomethyl)cyclopentylamino]acetyl}-pyrrolidine-2-carbonitrile] | 32
8 | N#C[C@@H]1CCCN1C(=O)CNC1CCC(Cn2cnc([N+](=O)[O-])c2)C1 (mixture of isomers) [Example-30, (2S)-1-{2-[(3SR,1RS)-3-(1H-4-Nitro-1-imidazolylmethyl)cyclopentylamino]acetyl}-pyrrolidine-2-carbonitrile] | 6.88
9 | N#Cc1cccn1CC1CCC(NCC(=O)N2C[C@@H](F)C[C@H]2C#N)C1 (mixture of isomers) [Example-27, (2S,4S)-1-{2-[(3SR,1RS)-3-(2-Cyano-1H-pyrrol-1-ylmethyl)cyclopentylamino)-acetyl}-4-fluoropyrrolidine-2-carbonitrile] | 3.44
10 | N#C[C@@H]1CCCN1C(=O)CN[C@@H]1CC[C@H](CN2CCCS2(=O)=O)C1 [Example-18, (2S)-1-{2-[(3S,1R)-3-(1,1-Dioxo-2-isothiazolidinylmethyl)cyclopentylamino]acetyl}-pyrrolidine-2-carbonitrile] | 29.4
11 | N#C[C@@H]1CCCN1C(=O)CN[C@@H]1C=C[C@H](Cn2cncn2)C1 [Example-35] | 68.3
12 | CCCCc1nc(Cl)c(C#N)n1CC1CCC(NCC(=O)N2CCC[C@H]2C#N)C1 (mixture of isomers) [Example-32, 2-n-Butyl-4-chloro-1-((1SR,3RS)-3-{2-[(2S)-2-cyanopyrrolidin-1-yl]-2-oxoethyl-amino}cyclopentylmethyl)-1H-5-imidazolecarbonitrile] | 3.46
13 | N#CC[C@H]1CC[C@@H](NCC(=O)N2CCC[C@H]2C#N)C1 [Example-4, (2S)-1-{2-[(3S,1R)-3-Cyanomethylcyclopentylamino]acetyl}-2-pyrrolidinecarbo-nitrile] | 22.2
14 | N#C[C@@H]1CCCN1C(=O)CNC1CCC(CN2CCC[C@H]2C(N)=O)C1 (mixture of isomers) [Example-10, (2S)-1-((1SR,3RS)-3-{2-[(2S)-2-Cyanopyrrolidin-1-yl]-2-oxoethylamino}cyclopentyl-methyl)pyrrolidine-2-carboxamide] | 64.4
15 | N#C[C@@H]1CCCN1C(=O)CN[C@@H]1CC[C@H](CNC(=O)Nc2ccc(F)cc2F)C1 [Example-14, N1-(2,4-Difluorophenyl)-N3-((1S,3R)-3-{2-[(2S)-2-cyanopyrrolidin-1-yl]-2-oxoethyl-amino}cyclopentylmethyl)urea] | 26.3
16 | N#C[C@@H]1CCCN1C(=O)CNC1CCC(C(=O)N2CCC[C@H]2C#N)C1 (mixture of isomers) [Example-11] | 103
17 | N#CCC[C@H]1CC[C@@H](NCC(=O)N2C[C@@H](F)C[C@H]2C#N)C1 [Example-9, 3-((1R,3R)-3-{2-[(2S,4S)-2-Cyano-4-fluoropyrrolidin-1-yl]-2-oxoethylamino}-cyclopentyl)propanenitrile] | 3.93

Further lines, results first:

Row | IC50 [nM] | SMILES
18 | 4.12 | N#C[C@@H]1CCCN1C(=O)CN[C@@H]1CC[C@H](Cn2cnnn2)C1 [Example-60, (2S)-1-{2-[(3S,1R)-3-(1H-1,2,3,4-Tetrazol-1-ylmethyl)cyclopentylamino]acetyl}-pyrrolidine-2-carbonitrile maleate]
19 | 4.63 | N#C[C@@H]1C[C@H](F)CN1C(=O)CN[C@@H]1CC[C@H](Cn2cncn2)C1 [Example-45, (2S,4S)-1-{2-[(3S,1R)-3-(1H-1,2,4-Triazol-1-ylmethyl)cyclopentylamino]acetyl}-4-fluoropyrrolidine-2-carbonitrile oxalate]
20 | 3.54 | N#C[C@@H]1C[C@H](F)CN1C(=O)CN[C@H]1CC[C@@H](Cn2cncn2)C1 [Example-52, (2S,4S)-1-{2-[(1S,3R)-3-(1H-1,2,4-Triazol-1-ylmethyl)cyclopentylamino]acetyl}-4-fluoropyrrolidine-2-carbonitrile]
21 | 21.9 | N#C[C@@H]1CCCN1C(=O)CN[C@@H]1CC[C@H](CN2CCc3ccccc32)C1 [Example-63]
22 | 5.88 | N#C[C@@H]1C[C@H](F)CN1C(=O)CN[C@H]1CC[C@@H](Cn2ccnn2)C1 [Example-57]
23 | 3.43 | N#C[C@@H]1CCCN1C(=O)CN[C@@H]1CC[C@H](Cn2nnc3ccccc32)C1 [Example-70, (2S)-1-{2-[(3S,1R)-3-(2H-Benzo[d][1,2,3]triazol-1-ylmethyl)cyclopentylamino]-acetyl}pyrrolidine-2-carbonitrile]
24 | 3.73 | N#C[C@@H]1C[C@H](F)CN1C(=O)CN[C@@H]1CC[C@H](Cn2cncn2)C1 [Example-44, (2S,4S)-1-{2-1(3S,1R)-3-(1H-1,2,4-Triazol-1-ylmethyl)cyclopentylamino]acetyl}-4-fluoropyrrolidine-2-carbonitrile methanesulfonate]
25 | 6.25 | N#C[C@@H]1C[C@H](F)CN1C(=O)CN[C@@H]1CC[C@H](Cn2cncn2)C1 [Example-43, (2S,4S)-1-{2-[(3S,1R)-3-(1H-1,2,4-Triazol-1-ylmethyl)cyclopentylamino]acetyl}-4-fluoropyrrolidine-2-carbonitrile hydrochloride]
26 | 5.12 | N#C[C@@H]1C[C@H](F)CN1C(=O)CN[C@@H]1CC[C@@H](Cn2cncn2)C1 [Example-53, (2S,4S)-4-Fluoro-1-{2-[(1R,3R)-3-(1H-1,2,4-Triazol-1-ylmethyl)cyclopentylamino]-acetyl}pyrrolidin-2-carbonitrile]
27 | 22.3 | N#C[C@@H]1CCCN1C(=O)CN[C@H]1CC[C@@H](Cn2ncc3ccccc32)C1 [Example-67, (2S)-1-{2-[(1S,3R)-3-(1H-Indazol-1-ylmethyl)cyclopentylamino]acetyl}pyrrolidin-2-carbonitrile]
